Common to all, as to assay: growth of human tumour cells (NCI), 48 h
For assay [1], the system named is UACC-62.
Assay [2] deals with RPMI-8226.
Assay [3] has as its system SR.
Assay [4] has as its system COLO 205.
In assay [5] the test system is HOP-62.
In assay [6] the test system is 786-0.
The subject of assay [7] is SF-539.
Assay [8] deals with MDA-MB-435.
Assay [9] concerns NCI/ADR-RES.
For assay [10], the system named is HL-60.
Assay [11] has as its system UACC-257.
In assay [12] the test system is K562.
Assay [13] deals with CCRF-CEM.
Assay [14] relates to RXF 393.
Assay [15] deals with HCT-15.
Assay [16] deals with Malme-3M.
For assay [17], the system named is TK-10.
The test system of assay [18] is SK-MEL-28.
Assay [19] relates to NCI-H522.
The test system of assay [20] is SK-OV-3.

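Cells were grown in 96-well plates and exposed to each compound for 48 hours at five concentrations; endpoints were interpolated linearly between bracketing concentrations, or set to the highest concentration if not reached. GI50: concentration for 50% inhibition of growth.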 Activity calls are given as the source filed them. No stated cut-off is given here; in the data, active = GI50 up to about 1.1 µM and inactive = higher. A value given as a limit tells only on which side of the number the result lay.

Consider `COc1cc(OC)c(NC2=NCCO2)cc1Cl`, for which the GI50 is 60.7 µM (inactive) in assay [1]; 46.8 µM (inactive) in [2]; 27.4 µM (inactive) in [3]; 18.8 µM (inactive) in [4]; 49.7 µM (inactive) in assay [5]; 30.1 µM (inactive) in [6]. Further, the GI50 in assay [7] is 25.5 µM (inactive); in assay [8], 20.1 µM (inactive); in assay [9], 32.4 µM (inactive); in [10], 43.3 µM (inactive); in assay [11], 31 µM (inactive); in assay [12] it was 83.9 µM (inactive). Also, the GI50 is 54 µM (inactive) in assay [13]; 46.1 µM (inactive) in assay [14]; 33.9 µM in assay [15]; 68.7 µM (inactive) in assay [16]; 60.3 µM (inactive) in assay [17]; 44 µM (inactive) in [18]. In addition, the GI50 in assay [19] was 32.8 µM (inactive).

In the case of `CC1=NN(C(=O)CC(=O)Nc2cccc(C)c2)C(=O)C1/N=N/c1ccc(C(=O)O)cc1` (stereo not given), the GI50 in [1] is > 100 µM (inactive); in assay [2], > 100 µM (inactive); in assay [3], 37.9 µM (inactive); in [4], > 100 µM (inactive); in assay [5] it was > 100 µM (inactive); in assay [6] it was > 100 µM (inactive). Also, the GI50 in assay [7], in [8], in assay [9], in [10], in assay [11] and in assay [12] was > 100 µM (inactive) in each case. In addition, the GI50 in [13] was > 100 µM (inactive); in assay [14] it was > 100 µM (inactive); in assay [15], over 100 µM; in [16], > 100 µM (inactive); in [17], > 100 µM (inactive); in [18], > 100 µM (inactive). The GI50 in assay [19] is > 100 µM (inactive).

For `CC1=CCC2CC1NC(=O)CCOCCC(=O)NC2(C)C` (stereo not given), the GI50 in [1], in assay [2], in [3], in assay [4], in assay [20] and in [6] was > 100 µM (inactive) each time. Further, the GI50 in assay [7], in assay [8], in [9], in [11], in [12] and in assay [13] was > 100 µM (inactive) in each case. Moreover, the GI50 was > 100 µM (inactive) in [14]; over 100 µM in assay [15]; > 100 µM (inactive) in assay [17]; > 100 µM (inactive) in assay [18]; > 100 µM (inactive) in assay [19].

For `CCC(=O)NC(Nc1ccccc1F)(C(F)(F)F)C(F)(F)F`, the GI50 in [1] was 40.6 µM (inactive); in assay [2], > 100 µM (inactive); in assay [3], > 100 µM (inactive); in [4], > 100 µM (inactive); in [20], > 100 µM (inactive); in assay [7], > 100 µM (inactive). In addition, the GI50 in assay [8], in assay [9], in assay [10], in assay [11], in assay [12] and in [13] was > 100 µM (inactive) throughout. Besides, the GI50 is > 100 µM (inactive) in [14]; over 100 µM in assay [15]; > 100 µM (inactive) in assay [17]; > 100 µM (inactive) in assay [18]; > 100 µM (inactive) in [19].

For `CN(C)c1ccc(C(N)=O)cn1`, the GI50 in assay [1], in [2], in assay [3], in [4], in assay [5] and in assay [6] was > 100 µM (inactive) each time. The GI50 in assay [7], in assay [8], in assay [9], in assay [10], in [11] and in [12] was > 100 µM (inactive) throughout. In addition, the GI50 in [13] was > 100 µM (inactive); in assay [14] it was > 100 µM (inactive); in [15], over 100 µM; in assay [16], > 100 µM (inactive); in [17], > 100 µM (inactive); in assay [18], > 100 µM (inactive). Further, in assay [19], the GI50 is > 100 µM (inactive).

As to `CCCCCCCCCCCCCCCCNc1ccn(C2CC(OP(=O)(O)OCC3OC(n4cc(CC)c(=O)[nH]c4=O)CC3O)C(CO)O2)c(=O)n1` (stereo not given), the GI50 was 18 µM (inactive) in [1]; 17.8 µM (inactive) in assay [2]; 22.4 µM (inactive) in [3]; 26 µM (inactive) in assay [4]; 23.4 µM (inactive) in assay [5]; 27.3 µM (inactive) in [20]. In addition, the GI50 in [6] is 83.2 µM (inactive); in [7], 18.4 µM (inactive); in [8], 46.9 µM (inactive); in [9], 27.9 µM (inactive); in assay [10], 4.66 µM (inactive); in assay [11], 30.3 µM (inactive). Moreover, the GI50 is 20.4 µM (inactive) in assay [12]; 13.7 µM (inactive) in assay [14]; 28.1 µM in [15]; 77.3 µM (inactive) in assay [17]; 21.4 µM (inactive) in [18]; 36.4 µM (inactive) in assay [19].

Regarding `CCOC(=O)C(=[N+]=[N-])C(=O)CN1C(=O)C2CC(C)=C(C)CC2C1O` (stereo not given), the GI50 in assay [1], in [2], in [3], in assay [4], in [5] and in [6] was > 100 µM (inactive) throughout. For the same molecule, the GI50 in assay [7], in [8], in assay [9], in assay [10], in assay [11] and in assay [12] was > 100 µM (inactive) in each case. Also, the GI50 in assay [13], in [14], in [16], in assay [17], in assay [18] and in assay [19] was > 100 µM (inactive) throughout.

For the molecule `CC(/C=C/C=C/C=C/C=C/C=C/C(=O)C1=C(O)C(CCC(=O)O)N(C)C1=O)=C\C(C)C(OC1CC(O)C(O)C(C)O1)C(C)C` (stereo not given), the GI50 in assay [2] is 3.13 µM (inactive); in assay [3], 3.85 µM (inactive); in assay [4] it was 2.18 µM (inactive); in assay [5] it was 1.87 µM (inactive); in assay [6], 3.15 µM (inactive); in [7] it was 2.56 µM (inactive). Also, the GI50 in assay [8] is 3 µM (inactive); in assay [9] it was 13 µM (inactive); in assay [10], 2.43 µM (inactive); in assay [11], 2.15 µM (inactive); in assay [12], 3.71 µM (inactive); in [13], 3.26 µM (inactive). The GI50 in assay [14] was 3.07 µM (inactive); in assay [15] it was 3.68 µM; in [16] it was 2.23 µM (inactive); in [17], 2.49 µM (inactive); in assay [18] it was 2.68 µM (inactive); in [19], 2.91 µM (inactive).
